Test results: PMC6254164, “Synthesis of Novel Hybrid Molecules from Precursors With Known Antiparasitic Activity” (Molecules, 2009)
Where two headings read alike, the source gives them in different places. One block for each compound: values may come before it.

Legend:
[1] = system: Entamoeba histolytica HK-9 strain; test: In vitro antiamoebic activity (parasite count, trypan blue); type: cell-based; conditions: 72 hours at 36-37 °C, six determinations, read-out: Mean IC50 ± SD, Entamoeba histolytica
Experimental: (§1) Entamoeba histolytica HK-9 strain (ATCC number 30015) was cultured in LYI-S-2 medium supplemented with antibiotics. Giardia intestinalis WB strain (ATCC number 30957) was grown in a modified YI-S medium with antibiotics. Both parasites were cultivated in 15-mL screw-capped borosilicate glass tubes containing 13 mL medium. The tubes were incubated on a 15º horizontal slant at (36-37) ºC. Culture maintenance and subculturing was performed as described Entamoeba and Giardia were harvested from confluent cultures by chilling of the tubes on ice for 5-10 min. to detach cells, followed by centrifugation at 800 x g for 5 min.
(§2) Two milligrams of a test compound or a mixture were dissolved in 10 µL of dimethyl sulfoxide (DMSO) and completed with 1 mL growth medium. The solutions were filter sterilized using 0.22 µm syringe filters and the appropriate volumes of the solutions were taken to prepare the concentrations of each compound or reference drug in 15-mL screw-capped borosilicate glass tubes. […] For the control mixtures of the precursor compounds, 1:1 molar ratios were prepared. Each tube was inoculated with 20,000 cells of the parasite under testing (Entamoeba or Giardia). Each compound or mixture was assayed in duplicate in each of three independent experiments. In each assay, the appropriate controls were performed, including the one without any compound or mixture and another with metronidazole as the positive control. The caps of Entamoeba and Giardia tubes were tightly screwed and wrapped with Parafilm. The tubes were incubated on a 15º horizontal slant at 36-37 °C for 72 hours.
(§3) The parasites in each tube were counted using the standard hemacytometer at the 10X objective. In each count, trypan blue was employed to distinguish live from dead parasites. To permit detachment of Entamoeba and Giardia, the tubes were placed on ice for few minutes and the parasites were then centrifuged at 1000 x g for 10 min. The supernatant was discarded and 1 mL fresh medium was added to each tube. The final suspension was prepared by mixing 25 µL of the parasite suspension in each tube with 100 µL of 0.4 % trypan blue in phosphate buffered saline (PBS). The 50% inhibitory concentration (IC50) was employed as a parameter for biological activity. The IC50 is the concentration of compounds which cuts the number of parasites to half that in the negative control (growth medium + DMSO + parasites).

[2] = system: Vero cells; test: Cytotoxicity assay, trypan blue exclusion; type: cell-based; conditions: 48 hour incubation, six determinations, read-out: Mean IC50 ± SD, Vero cells
Experimental: (§4) The cytotoxicity of the hybrid compounds and the reference drug, metronidazole, was investigated on Hep-2 and Vero cells using the standard cytotoxicity assay and the trypan blue exclusion method. A cell suspension (10^5 cells/mL RPMI medium-10% inactivated foetal calf serum) was prepared from confluent cultures and 100 µL portions of the suspension were added to the wells of 96-well plates. The cells were incubated for 24 h at 37 °C and 5 % CO2 and the medium in each well was then replaced with fresh 150 µL medium. Solutions of the compounds or the reference drug were prepared and sterilized as described in “Antiamoebic and antigiardial activity” section above. Then, 150 µL-two fold serial dilutions of each of the compounds and the reference drug starting at a concentration of 2000 µg/mL in culture medium were prepared in the plates. After 48 hour incubation at 37 °C and 5 % CO2, the number of cells in each well was determined as follows: The medium in each well was gently replaced with 100 µL of 0.25% (w/v) trypsin-0.53 mM EDTA solution and the plates were incubated for 5 min. at 37 °C to allow cell detachment. Two-hundred microliters of trypan blue solution were added to each well and the plates were, then, placed on ice. The cells were counted in a hemacytometer at the 10X objective. Each compound was assayed in duplicate in each of three independent experiments. In each assay the negative controls (without any compound or reference drug) were included in duplicates.

[3] = system: Giardia intestinalis WB strain; test: In vitro antigiardial activity (parasite count, trypan blue); type: cell-based; conditions: 72 hours at 36-37 °C, six determinations, read-out: Mean IC50 ± SD, Giardia intestinalis
Experimental: as §1, §2, §3

[4] = system: Hep-2 cells; test: cells; type: cell-based; conditions: for IC50: 48 hour incubation, six determinations, read-out: Mean IC50 ± SD, Hep-2 cells
Experimental: as §4

[5] = Solubility in DMSO-aqueous medium (bioassay preparation); type: physicochemical
Experimental: The antiamoebic and antigiardial activities of the prepared hybrid molecules 8, 10-a, 12, their precursors, and 1:1 mixtures of these precursors were tested as described, with some modifications. […] Two milligrams of a test compound or a mixture were dissolved in 10 µL of dimethyl sulfoxide (DMSO) and completed with 1 mL growth medium. […] For each preparation, concentrations of 240, 120, 60, 30, 15, 7.5, 3.5, 1.7, 0.8, 0.4, 0.2, 0.1 µg/mL medium were prepared in a final volume of 15 mL to exclude air from the tube. For the control mixtures of the precursor compounds, 1:1 molar ratios were prepared. […] Each compound or mixture was assayed in duplicate in each of three independent experiments. In each assay, the appropriate controls were performed, including the one without any compound or mixture and another with metronidazole as the positive control. The caps of Entamoeba and Giardia tubes were tightly screwed and wrapped with Parafilm. The tubes were incubated on a 15º horizontal slant at 36-37 °C for 72 hours.

Compound: 3-(5-nitrofuran-2-yl)-N-[2-(5-nitroimidazol-1-yl)ethyl]acrylamide [Compound 8]
IC50 [1]: 5.32 ± 0.21 µM
IC50 [2]: 90.5 ± 7.83 µM
IC50 [3]: 5.56 ± 0.37 µM
IC50 [4]: 108 ± 8.02 µM

Compound: Cc1ncc([N+](=O)[O-])n1CCN [Compound 6, 2-(2-Methyl-5-1H-nitroimidazolyl)ethylamine, reference compound]
IC50 ([1]; Entamoeba histolytica, 72 h): 18.2 ± 2.28 µM
IC50 ([3]; Giardia duodenalis, 72 h): 18.5 ± 1.43 µM

Compound: Clc1ccc2c(N3CCNCC3)ccnc2c1 [Compound 9, 7-Chloro-4-(piperazine-1-yl) quinoline, reference compound]
IC50 ([1]; Entamoeba histolytica, 72 h): 55.7 ± 5 µM
IC50 ([3]; Giardia duodenalis, 72 h): 67.5 ± 8.67 µM

Compound: O=C(/C=C/c1ccc([N+](=O)[O-])o1)N1CCN(c2ccnc3cc(Cl)ccc23)CC1 [Compound 10-a]
IC50 [1]: 140 ± 6.37 µM
IC50 ([1]; Entamoeba histolytica, 72 h): ~140 µM
IC50 ([2]; Chlorocebus sabaeus, Vero): 593 ± 8.71 µM
IC50 [3]: 145 ± 5.37 µM
IC50 ([3]; Giardia duodenalis, 72 h): ~140 µM
cytotoxicity at the lethal concentrations against the parasites ([4]; Hep-2 and Vero cells): non-cytotoxic
IC50 ([4]; Homo sapiens, HEp-2): 574 ± 7.77 µM

Further lines, with some results ahead:

IC50 ([1]; Entamoeba histolytica, 72 h): 94.3 ± 9.76 µM
IC50 ([3]; Giardia duodenalis, 72 h): 88.4 ± 7.1 µM
Compound: O=C(O)/C=C/c1ccc([N+](=O)[O-])o1 [Compound 7, 5-Nitro-2-furylacrilic acid, reference compound]

solubility in DMSO-aqueous medium [5]: insolubility
Compound: O=C(/C=C\c1ccc([N+](=O)[O-])o1)N1CCN(c2ccnc3cc(Cl)ccc23)CC1 [Compound 10-b]

IC50 ([1]; Entamoeba histolytica, 72 h): 5.2 ± 1.03 µM
IC50 ([3]; Giardia duodenalis, 72 h): 5.7 ± 0.78 µM
IC50 ([4]; Homo sapiens, HEp-2): 1460 ± 18.3 µM
IC50 ratio, Hep-2 and Vero cells versus the tested parasites ([4]; IC50 against Hep-2 and Vero cells over IC50 against Entamoeba and Giardia): around 270 times
Compound: Cc1ncc([N+](=O)[O-])n1CCO [Metronidazole, metronidazole, reference compound]
IC50 ([2]; Chlorocebus sabaeus, Vero): 1500 ± 17.8 µM
